The values below come from EP1242382B1, “TRICYCLIC PROTEIN KINASE INHIBITORS” (Wyeth, priority 1999, dated 2001).

Values after ≈ are worked out from the molar mass of the structure shown. Some results are limits rather than exact numbers.

The target of assay [1] is T1, p60^c-src (Src) (Homo sapiens, UniProt P12931).
T1 construct: purchased Upstate Biotechnologies
The experiment in a line: Src kinase test procedure (Elisa format). It counts as biochemical. The procedure:
Inhibitors of p60^c-src (partially purified preparation purchased from Upstate Biotechnologies) tyrosine kinase activity are analyzed in an Elisa format. […] HRP-conjugated anti-phosphotyrosine is used to detect phosphorylated peptide via a color reaction. Conditions recommended by the manufacturer are employed.
Reaction conditions: Five microliter aliquots of each compound prepared fresh at the time of the assay are added as a solution in 10mM HEPES pH 7.5, 10% DMSO to the reaction well. Thirty-five microliters of reaction mix containing Src, buffer and peptide/bovine serum albumin mix are added to the compound wells and incubated at 30°C for 10 minutes (reaction buffer: 50mM TrisHCl pH 7.5, 10mM MgCl2, 0.1mM EGTA, 0.5mM Na3VO4). The reaction is started by addition of 10 microliters of ATP, incubated at 30°C for 1 hour, and stopped by addition of 20 microliters of 0.5M EDTA. The reaction mixture with the phosphorylated peptide is then transferred to a streptavidin-coated microtiter plate (provided in the kit) and allowed to bind for 20 minutes. Unbound peptide and reaction mixture is decanted and the plate is washed with PBS six times. Horseradish peroxidase-conjugated phosphotyrosine antibody supplied in the kit is incubated with the plate for one hour, then decanted. The plate is again washed with PBS six times.

Assay [2] relates to SW620. The experiment in a line: Inhibition of cancer cell growth as measured by cell number (Sulforhodamine B). Type of assay: cell-based. The note with it: Homo sapiens, SW-620; 48 hours exposure. The procedure: (§1) Human tumor cell lines are plated in 96-well plates (250 µl/well, 1-6 x 10^4 cells/ml) in RPMI 1640 medium, containing 5% FBS (Fetal Bovine Serum). Twenty four hours after plating, test compounds are added at various concentrations. After 48 hours exposure to test compounds, cells are fixed with trichloroacetic acid, and stained with Sulforhodamine B. After washing with trichloroacetic acid, bound dye is solubilized in 10 mM Tris base and optical density is determined using plate reader. Under conditions of the assay the optical density is proportional to the number of cells in the well. […] The test procedure is described in detail by Philip Skehan et. al, J. Natl. Canc. Inst., 82, 1107-1112 (1990). […] Information about some of the cell lines used in these test procedures is available from the American Type Tissue Collection: Cell Lines and Hybridomas, 1994 Reference Guide, 8th Edition.

Assay [3] deals with A431. The assay is described as above. Type of assay: cell-based. As to conditions: Homo sapiens, A-431; 48 hours exposure. The procedure: as §1
Assay [4] has as its system SK-BR3. Described as above. Type of assay: cell-based. As to conditions: Homo sapiens, SK-BR-3; 48 hours exposure. As to the method:
as §1

In assay [5] the test system is MDA-MB-435. Described as above. Type of assay: cell-based. The note with it: Homo sapiens, 48 hours exposure. As to the method:
as §1

Assay [6] concerns the target T2, EGF-R Kinase (recombinant enzyme) (Homo sapiens, UniProt P00533).
T2 construct: EGFR cDNA encoding amino acids 645 - 1186 preceded by Met-Ala-(His)6; made in house; host or cells: Sf9 insect cells, recombinant baculovirus vHcEGFR52
The experiment in a line: Inhibition of Epidermal Growth Factor Receptor Kinase (EGF-R) using recombinant enzyme. It counts as biochemical. As to conditions: RR-SRC peptide substrate, (a) = average of two tests. The procedure:
Representative test compounds are evaluated in a standard pharmacological test procedure to measure their ability to inhibit the phosphorylation of the tyrosine residue of a peptide substrate catalyzed by the enzyme epidermal growth factor receptor kinase. […] The enzyme used in this assay is the His-tagged cytoplasmic domain of EGFR. […] Sf9 cells in 100 mm plates are infected at a multiplicity of infection of 10 pfu/cell and cells are harvested 48 h post infection. A cytoplasmic extract is prepared using 1% Triton X-100 and applied to Ni-NTA column. After washing the column with 20 mM imidazole, HcEGFR is eluted with 250 mM imidazole (in 50 mM Na2HPO4, pH 8.0, 300 mM NaCl). Fractions collected are dialyzed against 10 mM HEPES, pH 7.0, 50 mM NaCl, 10% glycerol, 1ug/mL antipain and leupeptin and 0.1 mM Pefabloc SC. The protein is frozen in dry ice/methanol and stored -70°C.
Test compounds are made into 10 mg/mL stock solutions in 100% dimethylsulfoxide (DMSO). Prior to experiment, stock solutions are diluted to 500 uM with 100% DMSO and then serially diluted to the desired concentration with HEPES buffer (30 mM HEPES pH 7.4).
For the enzyme reaction, 10 uL of each inhibitor (at various concentrations) are added to each well of a 96-well plate. To this is added 3 uL of enzyme (1:10 dilution in 10mM HEPES, pH 7.4 for final conc. of 1:120). This is allowed to sit for 10 min on ice and is followed by the addition of 5 ul peptide (80 uM final conc.), 10ul of 4X Buffer containing 50 mM HEPES (pH 7.4), 200 mM Na3VO4, 40mM MnCl2, 80 uM ATP, 0.25 uL ^33P-ATP (>2500 Ci/mmol; Amersham) and 12 uL H2O. The reaction is allowed to run for 90 min at room temperature and is followed by spotting the entire volume onto precut P81 filter papers. The filter discs are washed 2X with 0.5% phosphoric acid and radioactivity is measured using a liquid scintillation counter.
The % inhibition of the test compound is determined for at least three different concentrations and the IC50 value is evaluated from the dose response curve. […] CPM(control) is in units of counts per minute and is a number expressing the amount of radiolabled ATP (γ-^33P) incorporated into the RR-SRC peptide substrate by the enzyme after 90 minutes at room temperature in the absence of test compound as measured by liquid scintillation counting. The CPM values are corrected for the background counts produced by ATP in the absence of the enzymatic reaction.

Assay [7] has as its system Rat2 fibroblasts stably transformed with v-Src/Hu c-Src fusion gene. The experiment in a line: Anchorage independent Src-transformed fibroblast proliferation test procedure. As to conditions: Rattus norvegicus, the 3rd table c6, (a)-(d) = average of two to five runs, read-out: Src TF prolif IC50. Type of assay: cell-based. An excerpt:
Anchorage Independent Src-transformed Fibroblast Proliferation Test Procedure: Rat2 fibroblasts stably transformed with a plasmid containing a CMV promotor controlled v-Src/Hu c-Src fusion gene in which the catalytic domain of human c-Src is inserted in place of the v-Src catalytic domain in the v-Src gene are used for the measurement of src dependent suspension growth.

T1 sequence (P12931 whole entry): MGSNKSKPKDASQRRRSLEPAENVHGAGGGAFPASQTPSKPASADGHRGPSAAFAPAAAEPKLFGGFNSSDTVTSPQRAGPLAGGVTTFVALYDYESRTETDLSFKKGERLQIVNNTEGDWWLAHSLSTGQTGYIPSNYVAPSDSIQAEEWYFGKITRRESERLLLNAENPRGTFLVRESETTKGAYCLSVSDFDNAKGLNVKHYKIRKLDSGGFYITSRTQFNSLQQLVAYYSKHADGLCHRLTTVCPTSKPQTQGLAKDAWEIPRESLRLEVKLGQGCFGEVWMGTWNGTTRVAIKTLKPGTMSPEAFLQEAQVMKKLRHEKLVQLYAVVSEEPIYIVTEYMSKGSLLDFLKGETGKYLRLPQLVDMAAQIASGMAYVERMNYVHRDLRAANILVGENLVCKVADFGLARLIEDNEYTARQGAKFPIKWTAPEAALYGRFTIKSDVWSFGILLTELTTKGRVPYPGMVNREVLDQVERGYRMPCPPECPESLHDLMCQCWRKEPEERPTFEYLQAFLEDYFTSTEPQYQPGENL
T2 sequence (P00533 669-1210): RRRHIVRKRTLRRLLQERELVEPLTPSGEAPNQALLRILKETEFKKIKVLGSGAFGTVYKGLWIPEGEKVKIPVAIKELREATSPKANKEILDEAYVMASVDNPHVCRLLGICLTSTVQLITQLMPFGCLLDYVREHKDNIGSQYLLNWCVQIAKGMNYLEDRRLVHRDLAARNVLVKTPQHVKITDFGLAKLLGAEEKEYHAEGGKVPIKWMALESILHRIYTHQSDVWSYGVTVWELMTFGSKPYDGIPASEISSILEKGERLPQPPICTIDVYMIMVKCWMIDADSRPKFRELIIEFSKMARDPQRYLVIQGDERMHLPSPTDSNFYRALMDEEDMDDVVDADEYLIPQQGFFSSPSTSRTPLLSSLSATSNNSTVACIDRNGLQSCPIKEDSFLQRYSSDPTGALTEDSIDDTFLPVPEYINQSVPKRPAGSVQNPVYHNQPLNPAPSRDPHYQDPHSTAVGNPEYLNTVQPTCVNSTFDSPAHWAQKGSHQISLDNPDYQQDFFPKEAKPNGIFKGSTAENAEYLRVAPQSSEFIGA

The term IC50 denotes the point on the concentration scale where inhibition reaches its midpoint. For the compound `N#Cc1cnc2c(sc3ccc([N+](=O)[O-])cc32)c1Nc1ccc(Cl)cc1Cl` [Example 90, 4-(2,4-Dichloroanilino)-8-nitro[1]benzothieno[3,2-b]pyridine-3-carbonitrile], the inhibition at 1 µM in assay [1] (dose 1 µM, read-out: Src %Inh) is 0%. Further, the concentration for half-maximal inhibition (IC50) was 0.67 µg/mL (≈ 1.61 µM) in assay [2], 0.41 µg/mL (≈ 0.987 µM) in assay [3], 0.59 µg/mL (≈ 1.42 µM) in assay [4] and 0.46 µg/mL (≈ 1.11 µM) in assay [5].

For `N#Cc1cnc2cc3cc(O)c(O)cc3cc2c1Nc1ccc(Cl)cc1Cl` [Example 15, 4-(2,4-Dichloroanilino)-7,8-dihydroxybenzo[g]quinoline-3-carbonitrile], the inhibition at 0.01 µM in assay [1] (dose 0.01 µM, read-out: Src %Inh) came out at 10%. In addition, the 50% inhibitory concentration (IC50) in assay [2] was 0.38 µg/mL (≈ 0.959 µM); in assay [3], 0.58 µg/mL (≈ 1.46 µM); in assay [4] it was more than 5 µg/mL; in assay [5], 0.85 µg/mL (≈ 2.15 µM).

Consider `N#Cc1cnc2c(oc3ccccc32)c1Nc1cccc(Br)c1` [Example 85, 4-(3-Bromophenylamino)benzo[4,5]furo[3,2-b]pyridine-3-carbonitrile], for which, in assay [1] (dose 10 µM), the “Src %Inh” value was determined as 44%. Besides, the inhibition at 10 µM in assay [1] (dose 10 µM, read-out: Src %Inh) came to 53%. The concentration for half-maximal inhibition (IC50) in assay [6] was 1000 nM; in assay [2], more than 5 µg/mL; in assay [3] it was more than 5 µg/mL; in assay [4] it was more than 5 µg/mL; in assay [5], more than 5 µg/mL.

As for `C=CC(=O)Nc1ccc2sc3c(Nc4cccc(Br)c4)c(C#N)cnc3c2c1` [Example 93, N-[4-(3-Bromoanilino)-3-cyano[1]benzothieno[3,2-b]pyridin-8-yl]acrylamide], the half-maximal inhibitory concentration (IC50) was determined as 1 µg/mL (≈ 2.23 µM) in assay [2], 0.838 µg/mL (≈ 1.86 µM) in assay [3], 0.224 µg/mL (≈ 0.499 µM) in assay [4] and 1.69 µg/mL (≈ 3.76 µM) in assay [5].

Consider `N#Cc1cnc2c(sc3ccc(N)cc32)c1Nc1cccc(Br)c1` [Example 92, 8-Amino-4-(3-bromoanilino)-[1]benzothieno[3,2-b]pyridine-3-carbonitrile], for which the IC50 in assay [2], in assay [3], in assay [4] and in assay [5] was more than 5 µg/mL in each case.

`N#Cc1cnc2c(c1Nc1cccc(Br)c1)C=C1N=CN=C1C2` [Example 37, 8-(3-Bromo-phenylamino)imidazo[4,5-g]quinoline-7-carbonitrile]: the IC50 in assay [6] came out at 1.5 nM; in assay [2] it was 3.72 µg/mL (≈ 10.2 µM); in assay [3], 0.58 µg/mL (≈ 1.59 µM); in assay [4], 0.6 µg/mL (≈ 1.65 µM); in assay [5] it was 3.48 µg/mL (≈ 9.56 µM).

In the case of `N#Cc1cnc2cc3ccccc3cc2c1Nc1ccc(F)c(Cl)c1` [Example 4, 4-(3-Chloro-4-fluoroanilino)benzo[g]quinoline-3-carbonitrile], the half-inhibitory concentration (IC50) in assay [6] is 5 nM; in assay [2], 1.08 µg/mL (≈ 3.11 µM); in assay [3], 0.332 µg/mL (≈ 0.955 µM); in assay [4], 1.01 µg/mL (≈ 2.9 µM); in assay [5], 1.65 µg/mL (≈ 4.74 µM).

Regarding `COc1cc2cc3ncc(C#N)c(Nc4ccc(F)c(Cl)c4)c3cc2cc1OCCN1CCOCC1` [Example 212, 4-(3-Chloro-4-fluoroanilino)-8-methoxy-7-[2-(4-morpholinyl)ethoxy]benzo[g]quinoline-3-carbonitrile], the IC50 is more than 10000 nM in assay [7]; 1890 nM in assay [6]; 0.36 µg/mL (≈ 0.71 µM) in assay [2]; 0.76 µg/mL (≈ 1.5 µM) in assay [3]; 0.04 µg/mL (≈ 0.0789 µM) in assay [4].

Consider `N#Cc1cnc2c(sc3ccccc32)c1Nc1cccc(Br)c1` [Example 65, 4-(3-Bromophenylamino)benzo[4,5]thieno[3,2-b]pyridine-3-carbonitrile], for which, in assay [1] (dose 10 µM, read-out: Src %Inh), the inhibition at 10 µM worked out at 7%. In addition, the IC50 in assay [6] is 1000 nM; in assay [2], more than 5 µg/mL; in assay [3], more than 5 µg/mL; in assay [4], more than 5 µg/mL; in assay [5], more than 5 µg/mL.

Take `C=CC(=O)Nc1cccc2c1sc1c(Nc3cccc(Br)c3)c(C#N)cnc12` [Example 94, N-[4-(3-Bromoanilino)-3-cyano[1]benzothieno[3,2-b]pyridin-6-yl]acrylamide]: the IC50 in assay [6] was 100 nM; in assay [2] it was more than 5 µg/mL; in assay [3] it was 1.11 µg/mL (≈ 2.47 µM); in assay [4], 1.09 µg/mL (≈ 2.43 µM); in assay [5], 3.9 µg/mL (≈ 8.68 µM).
